Assay results published in patent publication US10463644B2, “Uses of sesquiterpene lactone compounds and their derivatives in drugs preparation” (ACCENDATECH, priority 2013, dated 2019).
Where two headings read alike, the source gives them in different places.

Legend:
normal cells = assay: Survival rate of normal cells after test compound is added (flow cytometry, Annexin V-FITC/PI); assay type: cell-based; conditions: 18 h
Text: (§1) Take fresh or cryopreserved clinical specimen (acute myelogenous leukemia (AML, marker is CD34^+/CD38^+), chronic myelogenous leukemia (CML, Ph+/CD34+/CXCR4+), chronic lymphocytic leukemia (CLL,CD133+/CD19−/CD38−), skin cancer (CD34+), breast cancer (CD44+/CD24−/ESA+), ovarian cancer (CD44+/CD117+), brain tumor (CD133+) prostate cancer (CD44+/CD24−), head-neck squamous cell carcinoma (CD44+), laryngeal cancer (CD133+), pancreatic cancer (ESA+/CD44+/CD24+), retinoblastoma (ABCG2/ALDH1), Children hepatoblastoma (CD34+/THY1+/c-kit+), liver cancer (CD133+), malignant melanoma (CD133+), colorectal cancer (EpCAM^high/CD44+), colon adenocarcinoma (CD44^high), glioma (ABCG-2/BCRP1), gastrointestinal tumor (ABCG-2/BCRP1), nasopharynx cancer (ABCG2), brain glioma (Dlk-1/Pref-1), gastric cancer (CD45+), lung adenocarcinoma (Sca-1/CD45-/Pecam-/CD34+), lung cancer (CD133+CD34+CD44+)) of patient. Take the acute myelogenous leukemia as the example, conduct density gradient centrifugation with Ficoll and take out the middle mononuclear cells, re-suspend it with serum-free IMDM after centrifuged. Adjust the concentration of cells into 1×10^6/mL and lay 24-well plate with 1 mL in each well, and then treat 18 hours with the compound to select with corresponding concentration. Collect the cells and centrifuge them at 1500 rps for 8 minutes, re-suspend the precipitation with […], mark the antibodies related to leukemia stem cell, avoid light to incubate 30 minutes at room temperature and then centrifuge it at 1500 rps, then wash away the unbound antibody CD34^+CD38^+. Re-suspend it with 100 μl 1× Binding Buffer and add respectively 5 μl Annexin V-FITC and PI, then avoid light to incubate 15 minutes before add 200 μl 1× Binding Buffer, then use flow cytometry to examine the marked apoptosis within one hour.

cancer cells = assay: Survival rate of cancer cells after test compound is added (flow cytometry, Annexin V-FITC/PI, clinical specimen); assay type: cell-based, patient; conditions: Homo sapiens, 18 h, read-out: Survival rate (%) All cells (Stem cells and ordinary cells)
Text: as §1

[1] = test system: PGE2 secreted by synoviocyte; assay: Content of PGE2 in culture supernatant of synoviocyte of RA model rats given test compound; assay type: in vivo; conditions: rat RA model, dose 30 mg/kg.2d; normal control 8.34 ± 1.29, NaCl 32.44 ± 10.32; 30 mg/kg
Method in brief: (§2)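 Animals with induced RA are grouped and dosed with compound (30 mg/kg.2d) alongside NaCl and normal controls. Synoviocytes are prepared and cultured, and supernatants are harvested. TNF-α and PGE2 secretion are then quantified by one procedure, IL-1β by another.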

cancer stem cells = assay: Survival rate of cancer stem cells after test compound is added (flow cytometry, Annexin V-FITC/PI, clinical specimen); assay type: cell-based, patient; conditions: Homo sapiens, 18 h
Text: as §1

[2] = test system: IL-1β secreted by synoviocyte; assay: Content of IL-1β in culture supernatant of synoviocyte of RA model rats given test compound; assay type: in vivo; conditions: rat RA model, dose 30 mg/kg.2d; normal control 0.16 ± 0.034, NaCl 0.49 ± 0.136; 30 mg/kg
Method in brief: as §2

[3] = read-out: Survival rate (%) All cells (Stem cells and ordinary cells)
[4] = read-out: Survival rate (%) Stem cells
[5] = Head and neck squamous cell carcinomas

Compound `CC1=C2CC[C@@](C)(O)[C@@H]2[C@H]2OC(=O)[C@@H](CN(C)C)[C@@H]2CC1` [Compound 23] has a viability at 10 µM (normal cells; [3]) of 96%, a viability at 10 µM (normal cells; [4]) of 93% and a viability at 20 µM (normal cells; [3]) of 95%. It also gave a viability at 20 µM (normal cells; [4]) of 92%, a viability at 10 µM (cancer cells; AML) of 92% and a viability at 20 µM (cancer cells; AML) of 84%. For the same compound, the viability at 10 µM (cancer cells; Brain glioma) was 88%, the viability at 20 µM (cancer cells; Brain glioma) was 85% and the viability at 10 µM (cancer cells; Brain tumor) was 89%. It also gave a viability at 20 µM (cancer cells; Brain tumor) of 85%, a viability at 10 µM (cancer cells; Breast cancer) of 89% and a viability at 20 µM (cancer cells; Breast cancer) of 86%. It also gave a viability at 10 µM (cancer cells; CLL) of 95%, a viability at 20 µM (cancer cells; CLL) of 85% and a viability at 10 µM (cancer cells; CML) of 91%. The viability at 20 µM (cancer cells; CML) was 79%, the viability at 10 µM (cancer cells; Children hepatoblastoma) was 93% and the viability at 20 µM (cancer cells; Children hepatoblastoma) was 86%. The viability at 10 µM (cancer cells; Colon adenocarcinoma) was 91%, the viability at 20 µM (cancer cells; Colon adenocarcinoma) was 89% and the viability at 10 µM (cancer cells; Colorectal cancer) was 88%. It also gave a viability at 20 µM (cancer cells; Colorectal cancer) of 81%, a viability at 10 µM (cancer cells; Gastric cancer) of 86% and a viability at 20 µM (cancer cells; Gastric cancer) of 84%. For the same compound, the viability at 10 µM (cancer cells; Gastrointestinal tumor) was 94%, the viability at 20 µM (cancer cells; Gastrointestinal tumor) was 88% and the viability at 10 µM (cancer cells; Glioma) was 94%. For the same compound, the viability at 20 µM (cancer cells; Glioma) was 87%, the viability at 10 µM (cancer cells; [5]) was 91% and the viability at 20 µM (cancer cells; [5]) was 88%. It also gave a viability at 10 µM (cancer cells; Laryngeal cancer) of 88%, a viability at 20 µM (cancer cells; Laryngeal cancer) of 82% and a viability at 10 µM (cancer cells; Liver cancer) of 88%. It also gave a viability at 20 µM (cancer cells; Liver cancer) of 87%, a viability at 10 µM (cancer cells; Lung adenocarcinoma) of 87% and a viability at 20 µM (cancer cells; Lung adenocarcinoma) of 87%. The viability at 10 µM (cancer cells; Lung cancer) was 88%, the viability at 20 µM (cancer cells; Lung cancer) was 84% and the viability at 10 µM (cancer cells; Malignant melanoma) was 89%. For the same compound, the viability at 20 µM (cancer cells; Malignant melanoma) was 86%, the viability at 10 µM (cancer cells; Nasopharynx cancer) was 94% and the viability at 20 µM (cancer cells; Nasopharynx cancer) was 81%. For the same compound, the viability at 10 µM (cancer cells; Ovarian cancer) was 91%, the viability at 20 µM (cancer cells; Ovarian cancer) was 84% and the viability at 10 µM (cancer cells; Pancreatic cancer) was 90%. The viability at 20 µM (cancer cells; Pancreatic cancer) was 86%, the viability at 10 µM (cancer cells; Prostate cancer) was 92% and the viability at 20 µM (cancer cells; Prostate cancer) was 89%. For the same compound, the viability at 10 µM (cancer cells; Retinoblastoma) was 91%, the viability at 20 µM (cancer cells; Retinoblastoma) was 85% and the viability at 10 µM (cancer cells; Skin cancer) was 95%. For the same compound, the viability at 20 µM (cancer cells; Skin cancer) was 87%, the “Content of PGE2 in culture supernatant of synoviocyte (x ± s)” value [1] was 21.71 ± 2.32 ng/mL and the viability at 10 µM (cancer stem cells; AML) was 85%. The viability at 20 µM (cancer stem cells; AML) was 72%, the viability at 10 µM (cancer stem cells; Brain glioma) was 84% and the viability at 20 µM (cancer stem cells; Brain glioma) was 76%. The viability at 10 µM (cancer stem cells; Brain tumor) was 85%, the viability at 20 µM (cancer stem cells; Brain tumor) was 73% and the viability at 10 µM (cancer stem cells; Breast cancer) was 84%. It also gave a viability at 20 µM (cancer stem cells; Breast cancer) of 74%, a viability at 10 µM (cancer stem cells; CLL) of 86% and a viability at 20 µM (cancer stem cells; CLL) of 74%. For the same compound, the viability at 10 µM (cancer stem cells; CML) was 87%, the viability at 20 µM (cancer stem cells; CML) was 71% and the viability at 10 µM (cancer stem cells; Children hepatoblastoma) was 85%. For the same compound, the viability at 20 µM (cancer stem cells; Children hepatoblastoma) was 79%, the viability at 10 µM (cancer stem cells; Colon adenocarcinoma) was 88% and the viability at 20 µM (cancer stem cells; Colon adenocarcinoma) was 81%. The viability at 10 µM (cancer stem cells; Colorectal cancer) was 79%, the viability at 20 µM (cancer stem cells; Colorectal cancer) was 72% and the viability at 10 µM (cancer stem cells; Gastric cancer) was 82%. The viability at 20 µM (cancer stem cells; Gastric cancer) was 77%, the viability at 10 µM (cancer stem cells; Gastrointestinal tumor) was 91% and the viability at 20 µM (cancer stem cells; Gastrointestinal tumor) was 82%. It also gave a viability at 10 µM (cancer stem cells; Glioma) of 87%, a viability at 20 µM (cancer stem cells; Glioma) of 76% and a viability at 10 µM (cancer stem cells; [5]) of 84%. The viability at 20 µM (cancer stem cells; [5]) was 78%, the viability at 10 µM (cancer stem cells; Laryngeal cancer) was 79% and the viability at 20 µM (cancer stem cells; Laryngeal cancer) was 73%. The viability at 10 µM (cancer stem cells; Liver cancer) was 82%, the viability at 20 µM (cancer stem cells; Liver cancer) was 79% and the viability at 10 µM (cancer stem cells; Lung adenocarcinoma) was 85%. The viability at 20 µM (cancer stem cells; Lung adenocarcinoma) was 82%, the viability at 10 µM (cancer stem cells; Lung cancer) was 85% and the viability at 20 µM (cancer stem cells; Lung cancer) was 78%. The viability at 10 µM (cancer stem cells; Malignant melanoma) was 82%, the viability at 20 µM (cancer stem cells; Malignant melanoma) was 76% and the viability at 10 µM (cancer stem cells; Nasopharynx cancer) was 85%. For the same compound, the viability at 20 µM (cancer stem cells; Nasopharynx cancer) was 74%, the viability at 10 µM (cancer stem cells; Ovarian cancer) was 87% and the viability at 20 µM (cancer stem cells; Ovarian cancer) was 75%. The viability at 10 µM (cancer stem cells; Pancreatic cancer) was 87%, the viability at 20 µM (cancer stem cells; Pancreatic cancer) was 77% and the viability at 10 µM (cancer stem cells; Prostate cancer) was 85%. It also gave a viability at 20 µM (cancer stem cells; Prostate cancer) of 77%, a viability at 10 µM (cancer stem cells; Retinoblastoma) of 82% and a viability at 20 µM (cancer stem cells; Retinoblastoma) of 74%. The viability at 10 µM (cancer stem cells; Skin cancer) was 85%, the viability at 20 µM (cancer stem cells; Skin cancer) was 75% and the “Content of IL-1β in culture supernatant of synoviocyte (x ± s)” value [2] was 0.36 ± 0.065 ng/mL.
